Values belong to the compound of their own block, whether it stands above or below them.
Key:
[1] = test system: STC-1 cells; assay: Calcium flux (FURA2) in STC-1 cells; assay type: cell-based; details: 100 uM, no extracellular Ca2+
Description: For the experiments summarized in FIG. 49 the method is: Cells grown on collagen coated glass slides were preloaded with the calcium indicator, FURA2, for 60 minutes. Buffer containing either FAHFAs or vehicle was incubated with cells for a period of 3 minutes followed by washout with buffer alone. FURA2 fluorescence, an indicator of Calcium mobilization, was monitored continuously before and during the addition of compounds and throughout the washout period. Results were analyzed with metamorph software. Calcium Flux in STC-1 (intestinal enteroendocrine) cells in the absence of extracellular calcium (calcium free buffer). Ligands were injected after 3 minutes and washed out after an additional 3 minutes. The data presented is the average fold change in Fura2 fluorescence for 10 individual STC-1 cells in the same field.
DMSO control had no effect. Top panel is linoleic acid, a positive control. Middle panel 9-PAHSA (100 uM). Bottom panel 5-PAHSA (100 μM). These experiments were done in the absence of extracellular calcium.

[2] = test system: STC-1 cells; assay: ERK phosphorylation in STC-1 cells (immunoblot); assay type: cell-based; details: 15 minutes
Description: For the experiments summarized in FIG. 50, STC-1 cells were incubated with 9-PAHSA, 5-PAHSA or 9-OAHSA at the indicated concentrations. Cells were harvested and lysed and proteins were separated by SDS PAGE and transferred onto nitrocellulose filters. The phosphorylation of ERK and the amount of total ERK was determined by immunoblotting with antibodies specific for total or phosphor-ERK. DMSO was the control. For ERK phosphorylation, cells were serum deprived overnight and stimulated with FAHFAs or vehicle as indicated for 15 minutes followed by lysis in RIPA buffer and analysis by SDS-PAGE

[3] = test system: Ins1 cells; assay: Insulin release studies in Ins1 cells; assay type: cell-based; details: 25 mM glucose in the media
Description: Ins1 cells (FIGS. 31A and 31B) or primary rat islet cells (FIG. 32A and FIG. 32B) were seeded in 24 well-plates [˜10^6 cells/well]. At confluence, cells were incubated with Low Serum [2.5%] and Low Glucose [2.5 mM] media for 12 hours. Next, cells were incubated with KRB buffer for 1 h and stimulated with glucose in the presence of 5-PAHSA (FIGS. 31a and 31B) or 9-PAHSA (FIG. 31B) for 45 min in KRB. At the end of the stimulation, 100 μL of media was collected and 10 μL was used to quantitate the amount of insulin released by ELISA. Treatment Conditions for FIGS. 31A, 31B and 32B were: • 5-PAHSA or 9-PAHSA [Stock]=20.0 mM [10.76 mg/mL Methanol] • A] 1 uM=0.3 uL/6 mL [Amount of methanol/mL=0.05 uL] • B] 5 uM=1.5 uL/6 mL [Amount of methanol/mL=0.25 uL] • C] 10 uM=3.0 uL/6 mL [Amount of methanol/mL=0.50 uL] • D] 20 uM=6.0 uL/6 mL [Amount of methanol/mL=1.00 uL]
Ins1 cells were seeded in 24 well-plates [˜10^6 cells/well] and at 80% confluence, were cultured overnight in RPMI 1640 medium containing 2.5 mM glucose and 2.5% fetal bovine serum supplemented with 100 IU/ml penicillin and […], 1 mM sodium pyruvate, 2-mercaptoethanol (50 μM) and 10 mM HEPES (pH 7.4). […] At the end of the stimulation supernatant was collected and insulin released into the medium was quantified by ELISA as per manufacturer's protocol. […]

[4] = target: T1, GPR120 (Homo sapiens, UniProt Q5NUL3); assay: PATHHUNTER beta-Arrestin GPCR assay; assay type: cell-based
T1 sequence (Q5NUL3 1-361): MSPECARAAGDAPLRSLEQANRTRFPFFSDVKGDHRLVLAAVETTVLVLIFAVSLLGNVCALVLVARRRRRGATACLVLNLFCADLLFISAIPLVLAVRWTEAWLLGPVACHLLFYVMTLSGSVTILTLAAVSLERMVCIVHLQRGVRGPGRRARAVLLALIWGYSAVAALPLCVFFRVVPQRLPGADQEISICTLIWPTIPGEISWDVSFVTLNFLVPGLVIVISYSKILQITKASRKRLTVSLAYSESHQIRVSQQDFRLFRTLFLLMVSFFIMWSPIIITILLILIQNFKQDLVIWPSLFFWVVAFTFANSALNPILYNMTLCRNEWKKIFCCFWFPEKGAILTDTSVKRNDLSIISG
Text: For the experiments summarized in FIGS. 53-55, the fragment based GPCR assay from DiscoveRx (PATHHUNTER® β-Arrestin assay) was used to as per manufacturer's instructions to determine activation of specific GPCRs as indicated in FIGS. 53-55.

[5] = test system: STC-1 cells; assay: GLP-1 secretion in STC-1 enteroendocrine cells (ELISA); assay type: cell-based
Description: For the experiments summarized in FIG. 51 STC-1 cells were incubated with vehicle (DMSO), 9-PAHSA, 5-PAHSA or 9-OAHSA at the indicated concentrations or lineolic acid (100 uM) as a positive control. Media was harvested and GLP-1 was measured by ELISA.
For the experiments summarized in FIG. 52, the same protocol as described for FIG. 51 was used, except in this experiment a time course was performed. For both FIG. 51 and FIG. 52, for GLP-1 secretion STC1 cells were washed 3× with serum free culture media followed by stimulation with FAHFAs or vehicle at the indicated concentrations and timepoints. Levels of active GLP-1 were measured by ELISA.

[6] = test system: carboxyl ester lipase (CEL)

activation of GPR120 [4]: activate GPR120
Compound: CCCCCCCCCCCCCCCC(=O)OC(CCCCCCCCCCCCC)CCCC(=O)O (stereo not shown) [5-PAHSA]
Ca2+ flux from intracellular stores [1]: induce Ca^2+ flux from intracellular stores | ERK phosphorylation [2]: induce ERK phosphorylation | insulin secretion [3]: potentiate insulin secretion | GLP-1 secretion [5]: induce GLP-1 secretion

Compound: CCCCCCCCCCCCCCCC(=O)OC(CCCCCCCCC)CCCCCCCC(=O)O (stereo not shown) [9-PAHSA, palmitoyl-9-hydroxystearic acid]
Ca2+ flux from intracellular stores [1]: induce Ca^2+ flux from intracellular stores | ERK phosphorylation [2]: induce ERK phosphorylation | insulin secretion [3]: potentiate insulin secretion | activation of GPR120 [4]: activate GPR120 | ligand for GPR120 ([4]; bar graph and titration curve): is a ligand for the GPCR, GPR120 | GLP-1 secretion [5]: induce GLP-1 secretion | time course for GLP-1 secretion [5]: very rapid and sustained | hydrolysis by HEK293T lysates transfected with CEL, AADACL1 or CES3 [6]: only CEL-transfected cell lysate was able to hydrolyze FAHFA above the level of background hydrolysis activity
